Assay results from ChEMBL document CHEMBL5257070, “The Asymmetric Total Synthesis and Configuration Confirmation of Aplysiaenal and Nhatrangin A, Truncated Derivatives of Aplysiatoxin and Oscillatoxin” (J Nat Prod, 2023).

Columns and labels:
L1210 = experiment: Cytotoxicity against mouse L1210 cells incubated for 72 hrs by WST-8 method; type: functional, cell-based; conditions: L1210, 72 h
HCT-116 = experiment: Cytotoxicity against human HCT-116 cells incubated for 72 hrs by MTT assay; type: functional, cell-based; conditions: HCT-116, 72 h

Row | Compound | IC50 (L1210) [µM] | IC50 (HCT-116) [µM]
1 | CO[C@@H](CC[C@H](C)[C@H]1O[C@@]2(C=C[C@@H]1C)[C@H](C(=O)O[C@H]1COC(=O)C1)C(=O)[C@H](C)CC2(C)C)c1cccc(O)c1 | 48 | –
2 | CO[C@@H](CC[C@H](C)[C@@H](OC(=O)C[C@@H](O)[C@@H](C)O)[C@@H](C)C(=O)O)c1cccc(O)c1 | > 100 | > 100
3 | CO[C@@H](CC[C@H](C)/C=C(\C)C=O)c1cccc(O)c1 | 93 | > 100
